Laboratory results taken from PMC8875392, “Design and Characterization of Myristoylated and Non-Myristoylated Peptides Effective against Candida spp. Clinical Isolates” (International Journal of Molecular Sciences, 2022).
Where two headings read alike, the source gives them in different places. Where a SMILES comes first, the peptide text is derived from it. The star is where a group is joined. Myristoyl = CCCCCCCCCCCCCC(=O)*

Experiments:
[1] = Critical micellar concentration (CMC) determination with ANS fluorescent probe; format: physicochemical; conditions: ANS fluorescence (70 μM ANS, λex 356 nm, emission 465 nm) in water, peptide 0.8–10.0 μM, 298 K, intersection of the two lines
Experimental: Lipopeptides usually self-assemble in organized structures that have attracted interest because of their enhanced bactericidal and fungicidal effects. The self-assembly of myristoylated peptides was evaluated by determining the critical micellar concentration (CMC) that represents the concentration of spontaneous associations of monomers by a spectrofluorometric method. 8-anilinonaphtalene-1-sulfonate (ANS) was used as a fluorescent probe since its fluorescence is very sensitive to the microenvironment, showing a blue shift and intensity increase upon changing from a polar to non-polar medium. Therefore, the fluorescence of ANS was monitored as a function of the lipopeptide concentration. […] Fluorescence intensity slowly increases up to a certain lipopeptide concentration and then breaks abruptly, indicating a sudden change in the aggregation state of lipopeptides. For each peptide, the critical micellar concentration (CMC) was evaluated by the intersection of the two lines. […] All the steady-state fluorescence measurements were carried out using a Perkin Elmer LS55 fluorescence spectrophotometer. All the experiments were conducted at 298 K in a thermostatic cell holder and in 20 mM phosphate buffer at pH 7.4 containing 0.8 mM EDTA and 150 mM NaCl unless otherwise specified. The CMC of the N-terminal myristoylated peptides was determined in water by fluorescence spectroscopy using 8-anilinonaphtalene-1-sulfonate (ANS) as the fluorescent probe. […] The ANS was excited at λex = 356 nm, and the fluorescence spectrum was measured for λem = 400–670 nm with excitation and emission bandwidths of 5 nm.

[2] = tested on: rabbit erythrocytes
Experimental: The hemolytic assay was performed on rabbit erythrocytes (Rockland) maintained in Alsever’s solution (Innovative Research). Briefly, after the removal of Alsever’s solution, the erythrocytes were resuspended in PBS and counted in a hemocytometer. A suspension of 5,000,000 red blood cells was incubated with four dilutions (from 5 µm to 50 µm) of the six peptides in a 96-well microplate. As a negative control, erythrocytes were incubated without the peptides, while as a positive control, erythrocyte was added with triton 10% v/v. The plate was incubated at 37 °C for 2 h and subsequently centrifuged at 1200 rpm × 3 min to separate the pellet from the supernatant. The absorbance of the supernatant was measured at 492 nm. Each point was made in triplicate. The relative OD compared to the positive control defined the percentage of hemolysis [71]. Statistical analysis was performed using two-way ANOVA analysis followed by Bonferroni’s post-test.

[3] = tested on: Candida auris; assay: In vivo peptide efficacy in Galleria mellonella larvae infected with C. auris; conditions: larvae infected with Candida auris 10^7 CFU, groups of ten, peptide 640 µg/mL injected at the same time, 30 °C
Experimental: (§1) Multidrug-resistant C. auris was chosen as a representative species for in vivo studies. […] Groups of ten G. mellonella larvae were infected with C. auris and treated with the Pep-B and Myr-B peptides at a concentration of 640 µg/mL (about 400 µM).
(§2) Ten larvae (250–320 mg each) were selected at random for each step in the procedure. Any larvae with darkening of the cuticle were discarded. The test compounds and yeast were injected into the hemocoel in water buffer through the last left proleg (Insumed 30G Pic, Italy, syringe volume 0.5 mL, needle size 30G). The larvae were incubated in the dark for 3 days, and mortality was recorded daily.
An infective dose of yeast Candida auris was determined by injecting groups of ten larvae with a suspension at 10^5, 10^6, 10^7, and 10^8 colony-forming units (CFU) per injection. The larvae were incubated for 3 days at 30 °C. An infective dose was defined as the one that caused an immune response, recognizable by the darkening of the cuticle and able to kill approximately 50% of larvae after 24 h.
(§3) For the peptide efficacy experiment, ten larvae were injected into the last left proleg with a pre-determined infective dose of yeast and the dose of peptides at the same time in a final volume of 10 μL and incubated at 30 °C. Each step in the procedure included six groups of 10 larvae: C. auris-infected larvae (10^7 CFU), infected and treated larvae with peptide B (640 μg/mL), infected and treated larvae with peptide Myr-B (640 μg/mL), treated larvae with peptide B (640 μg/mL), treated larvae with peptide Myr-B (640 μg/mL), and vehicle-injected control (water). The mortality was recorded daily for 3 days.

[4] = tested on: Galleria mellonella larvae; assay: In vivo peptide toxicity in Galleria mellonella model; conditions: uninfected larvae, groups of ten, peptide 640 µg/mL, single injection, 30 °C
Experimental: as §1, §2, §3

| Structure (SMILES) | critical micellar concentration (CMC) [1] | hemolysis ([2]; 5 µM) | Peptide efficacy, DAY 1 Alive [3] | Peptide efficacy, DAY 1 Dead [3] | Peptide efficacy, DAY 2 Alive [3] | Peptide efficacy, DAY 2 Dead [3] | Peptide efficacy, DAY 3 Alive [3] | Peptide efficacy, DAY 3 Dead [3] | Peptide toxicity, DAY 1 Dead [4] | Peptide toxicity, DAY 2 Dead [4] | Peptide toxicity, DAY 3 Dead [4] | hemolysis ([2]; 50 µM) |
| --- | --- | --- | --- | --- | --- | --- | --- | --- | --- | --- | --- | --- |
| CCCCCCCCCCCCCC(=O)N[C@@H](Cc1c[nH]c2ccccc12)C(=O)N[C@@H](Cc1ccccc1)C(=O)NCC(=O)N[C@@H](CCCCN)C(=O)N[C@@H](CC(C)C)C(=O)N[C@@H](Cc1ccc(O)cc1)C(=O)N[C@@H](CCCNC(=N)N)C(=O)NCC(=O)N[C@H](C(=O)N[C@H](C(=O)N[C@@H](CCCCN)C(=O)O)[C@@H](C)O)[C@@H](C)CC [Myr-A] (Myristoyl-WFGKLYRGITK-OH; C-terminus assumed) | 4.7 ± 0.8 µM | 0.1% |  |  |  |  |  |  |  |  |  |  |
| CCCCCCCCCCCCCC(=O)N[C@@H](Cc1c[nH]c2ccccc12)C(=O)N[C@@H](CCCNC(=N)N)C(=O)NCC(=O)N[C@H](C(=O)N[C@H](C(=O)N[C@@H](CCCCN)C(=O)N[C@H](C(=O)N[C@H](C(=O)N[C@@H](CCCCN)C(=O)N[C@@H](CCCCN)C(=O)N[C@H](C(=O)O)C(C)C)C(C)C)C(C)C)[C@@H](C)O)[C@@H](C)CC [Myr-B] (Myristoyl-WRGITKVVKKV-OH; C-terminus assumed) | 5.1 ± 0.8 µM |  | 8 | 2 | 3 | 7 | 3 | 7 | 1 | 1 | 1 |  |
| CCCCCCCCCCCCCC(=O)N[C@@H](Cc1c[nH]c2ccccc12)C(=O)N[C@H](C(=O)N[C@H](C(=O)N[C@@H](CCCCN)C(=O)N[C@@H](CCCCN)C(=O)N[C@H](C(=O)N[C@@H](CCCCN)C(=O)NCC(=O)N[C@@H](CC(C)C)C(=O)N[C@@H](CC(C)C)C(=O)N[C@@H](CCCCN)C(=O)O)C(C)C)C(C)C)C(C)C [Myr-C] (Myristoyl-WVVKKVKGLLK-OH; C-terminus assumed) | 5.1 ± 0.4 µM |  |  |  |  |  |  |  |  |  |  | 28.5% |
